How the values were obtained:
[1] = test system: CUG RNA foci in primary DM1 patient myoblasts; assay: DOUBLE-cut screening: FISH staining of RNA foci in primary DM1 patient myoblasts; assay type: cell-based, human; conditions: sgRNA pair RNP, 72 hrs post nucleofection; for % of CUG foci free nuclei (DNA-PKi): 3 μM Compound 6 for 48 hrs; for % of CUG foci free nuclei (Vehicle): DMSO 48 hrs
Summary of the method: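 Primary DM1 patient myoblasts nucleofected with paired upstream/downstream sgRNA–SaCas9 RNPs (20 pmol protein, 60 pmol sgRNA each), then treated 48 hrs with DMSO or 3 μM DNA-PK inhibitor. At 72 hrs post nucleofection, CUG foci stained by Cy3-PNA(CAG)5 FISH with MBNL1 co-staining and quantified by high-content confocal imaging.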

[2] = test system: CTG repeat expansion in the 3′ UTR of human DMPK gene; assay: DOUBLE-cut screening: CTG repeat excision by loss-of-signal ddPCR in primary DM1 patient myoblasts; assay type: cell-based; conditions: sgRNA pair RNP, mean of upstream and downstream ddPCR assays; for % of CTG repeat excision efficiency by ddPCR (DNA-PKi): 3 μM Compound 6 for 48 hrs; for % of CTG repeat excision efficiency by ddPCR (Vehicle): DMSO 48 hrs
Summary of the method: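 Paired upstream/downstream sgRNAs, each as RNP with recombinant SaCas9 (20 pmol protein:60 pmol sgRNA), mixed 1:1 and nucleofected into primary DM1 myoblasts; cells then given DMSO or 3 μM DNA-PKi Compound 6 for 48 hrs. Genomic DNA taken 72 hrs post-nucleofection; excision is mean of upstream and downstream loss-of-signal ddPCR, normalized to DMPK exon 1 reference.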

Row | Substance | % of CUG foci free nuclei (DNA-PKi) [1] [%] | % of CUG foci free nuclei (Vehicle) [1] [%] | % of CTG repeat excision efficiency by ddPCR (DNA-PKi) [2] [%] | % of CTG repeat excision efficiency by ddPCR (Vehicle) [2] [%]
1 | SaU8 +SaD3: SaCas9 sgRNA pair, SEQ ID NOs: 8 and 11 (guide 1 GGCTCGAAGGGTCCTTGTAGCC; guide 2 CAACGATAGGTGGGGGTGCGTG; listed as DNA, chemistry not fully specified) | 82.41 | 57.67 | 59.28 | 48.19
2 | SaU8 +SaD10: SaCas9 sgRNA pair, SEQ ID NOs: 8 and 18 (guide 1 GGCTCGAAGGGTCCTTGTAGCC; guide 2 TTGGGGGTCCTGTAGCCTGTCA; listed as DNA, chemistry not fully specified) | 82.92 | 74.46 | 69.07 | 48.45
3 | SaU8 +SaD11: SaCas9 sgRNA pair, SEQ ID NOs: 8 and 19 (guide 1 GGCTCGAAGGGTCCTTGTAGCC; guide 2 CAAAACGTGGATTGGGGTTGTT; listed as DNA, chemistry not fully specified) | 70.97 | 44.65 | 47.57 | 31.52
4 | SaU8 +SaD13: SaCas9 sgRNA pair, SEQ ID NOs: 8 and 21 (guide 1 GGCTCGAAGGGTCCTTGTAGCC; guide 2 CCCAACAACCCCAATCCACGTT; listed as DNA, chemistry not fully specified) | 77.05 | 43.66 | 51.64 | 29.46
5 | SaU8 +SaD20: SaCas9 sgRNA pair, SEQ ID NOs: 8 and 28 (guide 1 GGCTCGAAGGGTCCTTGTAGCC; guide 2 AGATGGAGGGCCTTTTATTCGC; listed as DNA, chemistry not fully specified) | 81.21 | 71.20 | 62.59 | 39.72

Source: US20240181081A1, “Compositions and Methods for Treatment of Myotonic Dystrophy Type 1 with CRISPR/SACAS9” (Vertex Pharmaceuticals Incorporated, priority 2021, published 2024)
